In patent US20120018333A1, “Reducing Side Effects of Tramadol” (priority 2007, published 2012):
Structures can show the parent of a compound that is named as a salt.

Columns and labels:
[1] = volunteer study of adverse events: tramadol HCl alone or combined with sildenafil citrate and naltrexone HCl before sexual intercourse
Procedure: In particular, three healthy, heterosexual male subjects (mean age 57) signed informed consents and volunteered to self administer oral tramadol HCl 100 mg 2 to 5 hours before sexual intercourse and to record any adverse events. At other times, these volunteers self administered oral tramadol HCl 25 to 100 mg combined with oral sildenafil citrate 50 mg or oral sildenafil citrate 50 mg plus oral naltrexone HCl 2.5 to 10 mg 2 to 5 hours before sexual intercourse and recorded any adverse effects.

[2] = placebo controlled, dose-ranging clinical study of oral tramadol HCl in men with severe premature ejaculation; type: in vivo, human; conditions: percentages based on total drug exposures for the three doses, 2 to 5 hours before intercourse
Procedure: See U.S. Pat. No. 6,974,839, Safarinejad et al., J. Clin. Psychopharmacol., 26(1):27-31 (February 2006) and Salem et al., J. Sex. Med., 5(1):188-193 (January 2008). A placebo controlled, dose-ranging clinical study that enrolled more than 60 male volunteers with severe premature ejaculation who self administered three different doses of oral tramadol HCl 2 to 5 hours before sexual intercourse was performed on behalf of DMI BioSciences, Inc., Aurora, Colo. […] However, the patient reported outcome responses in this study also reported the following previously unreported mild or moderate adverse events (percentages based on total drug exposures for the three doses): erectile dysfunction (8%-14%), anorgasmia (3%-7%), and penile hypoesthesia (4%-5%). Less common unexpected, drug-related mild or moderate adverse events were decreased libido (<1%-2%) and decreased orgasmic sensation (0-<1%). These mild or moderate adverse events related to sexual activity were generally dose-dependent and occurred more frequently in men 40 years of age and older.

[3] = used for analgesia; cited from earlier work
[4] = tramadol HCl 100 mg alone, % of total drug exposures, three volunteers

Compound: COc1cccc([C@]2(O)CCCC[C@H]2CN(C)C)c1 (racemic) [tramadol HCl, (±) cis-2-[(dimethylamino)methyl]-1-(3-methoxyphenyl)-cyclohexanol hydrochloride]
- serious adverse events ([1]; oral, 2 to 5 hours before sexual intercourse): No serious adverse events occurred
- anorgasmia [1, 4]: 29%
- constipation [1, 4]: 71%
- decreased libido [1, 4]: 43%
- decreased orgasmic sensation [1, 4]: 57%
- dizziness [1, 4]: 14%
- dry mouth [1, 4]: 57%
- erectile dysfunction [1, 4]: 43%
- fatigue [1, 4]: 14%
- insomnia [1, 4]: 71%
- itching [1, 4]: 57%
- nasal congestion [1, 4]: 57%
- nausea [1, 4]: 14%
- penile hypoesthesia [1, 4]: 43%
- restlessness [1, 4]: 29%
- mild or moderate adverse events, 100 mg dose compared with 25 mg ([1]; tramadol HCl alone, oral): substantially more
- anorgasmia (mild or moderate adverse event) [2]: 3%-7%
- decreased libido (mild or moderate adverse event) [2]: <1%-2%
- erectile dysfunction (mild or moderate adverse event) [2]: 8%-14%
- penile hypoesthesia (mild or moderate adverse event) [2]: 4%-5%

Compound: COc1cccc(C2(O)CCCCC2CN(C)C)c1 (stereo not shown) [Tramadol, 2-[(dimethylamino)methyl]-1-(3-methoxyphenyl)-cyclohexanol]
- incidence of reported side effects (dizziness, nausea, constipation, headache, somnolence, vomiting, pruritis, CNS stimulation, asthenia, sweating, dyspepsia, dry mouth, diarrhea) [3]: ≥ 5%

Compound: O=C1CC[C@@]2(O)[C@H]3Cc4ccc(O)c5c4[C@@]2(CCN3CC2CC2)[C@H]1O5 [naltrexone]
- effectiveness of tramadol in delaying ejaculation ([1]; naltrexone 2.5 mg to 10 mg given with tramadol): did not reduce
